One assay concerns histone deacetylase. Put plainly: in vitro inhibition of histone deacetylase by HDAC inhibitor screening kit (Biovision K340-100). The assay is classed as biochemical. The method, then: An assay for determining the in vitro inhibition activity of the compound on histone deacetylase is conducted according to the specification of HDAC inhibitor screeing kid (Biovision Company/Catalog #K340-100). […]

The subject of assay [1] is Hut78 T-cell Leukemia cell. Nature of the assay: CCK-8 proliferation inhibition, Hut78. The assay is classed as cell-based. As to conditions: Homo sapiens, read-out: Hut-78 (inhibition %); for inhibition at 10 µM: HuT78, 10 μM; for inhibition at 100 µM: HuT78, 100 μM. The essentials: (§1)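 Percent inhibition at 100 μM and 10 μM compound; CCK-8 readout.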
The subject of assay [2] is PANC-1 human pancreatic cancer cells. Nature of the assay: CCK-8 proliferation inhibition, PANC-1. Type of assay: cell-based. As to conditions: Homo sapiens; for inhibition at 10 µM: PANC-1, 10 μM; for inhibition at 100 µM: PANC-1, 100 μM. A digest of the protocol:
as §1

The subject of assay [3] is Jurkat E6-1 human T-cell lymphoma. Nature of the assay: CCK-8 proliferation inhibition, Jurkat E6-1. Type of assay: cell-based. As to conditions: Homo sapiens; for inhibition at 10 µM: Jurkat E6.1, 10 μM; for inhibition at 100 µM: Jurkat E6.1, 100 μM. The essentials: as §1
Assay [4] deals with K562 human chronic myeloid leukemia cells. Nature of the assay: CCK-8 proliferation inhibition, K562. Type of assay: cell-based. The following applies: Homo sapiens; for inhibition at 10 µM: K562, 10 μM; for inhibition at 100 µM: K562, 100 μM. A digest of the protocol: as §1
The test system of assay [5] is A549 human lung cancer cells. Nature of the assay: CCK-8 proliferation inhibition, A549. The assay is classed as cell-based. The following applies: Homo sapiens, A549, CCK-8 method; for inhibition at 10 µM: compound concentration 10 μM; for inhibition at 100 µM: compound concentration 100 μM. A digest of the protocol:
as §1

Assay [6] concerns MDA-MB-435s human breast cancer cells. Put plainly: CCK-8 proliferation inhibition, MDA-MB-435s. Type of assay: cell-based. The following applies: Homo sapiens, MDA-MB-435S, CCK-8 method; for inhibition at 10 µM: compound concentration 10 μM; for inhibition at 100 µM: compound concentration 100 μM. The essentials:
as §1

Assay [7] concerns Hep3B2.1-7 human liver cancer cells. Put plainly: CCK-8 proliferation inhibition, Hep3B2.1-7. The assay is classed as cell-based. As to conditions: Homo sapiens, Hep3B, CCK-8 method; for inhibition at 10 µM: compound concentration 10 μM; for inhibition at 100 µM: compound concentration 100 μM. The essentials:
as §1
(In general: Tetrazolium assays rely on reduction of a dye to a coloured formazan, in cell work by metabolically active cells.)

For assay [8], the system named is PC-3 human prostate cancer. Put plainly: CCK-8 proliferation inhibition, PC-3. Type of assay: cell-based. As to conditions: Homo sapiens, CCK-8 method; for inhibition at 10 µM: compound concentration 10 μM; for inhibition at 100 µM: compound concentration 100 μM. The essentials: as §1
Assay [9] concerns Colo320 human rectal cancer cells. Put plainly: CCK-8 proliferation inhibition, Colo320. The assay is classed as cell-based. As to conditions: Homo sapiens, COLO 320, CCK-8 method; for inhibition at 10 µM: compound concentration 10 μM; for inhibition at 100 µM: compound concentration 100 μM. A digest of the protocol:
as §1

Here are results for six compounds from patent US8889876B2, “Histone deacetylase inhibitors and uses thereof” (Jiangsu Hengyi Pharmaceutical Co., Ltd., priority 2008, dated 2014).

`COc1cc(COC(=O)NCc2ccc(C(=O)Nc3ccncc3N)cc2)cc(OC)c1OC` [V-14]: the “Inhibition rate(%)” value in the assay with histone deacetylase (3.91 μM) is recorded as 12.0%; in the assay with histone deacetylase (62.5 μM), 32.9%; with histone deacetylase (2 mM), 77.2%. Moreover, the inhibition (in general, the drop in the measured response relative to a control, in per cent) at 10 µM is 8.1% in [1]; 13% in assay [2]; 25.3% in assay [3]; 45% in assay [4]; -4.4% in assay [5]; 9.4% in assay [6]. In addition, the inhibition at 10 µM in [7] came to 3.7%; in assay [8], 13.7%; in assay [9] it was 6.4%. In addition, the inhibition at 100 µM in [1] was determined as 47.5%; in [2] it was 19%; in assay [3], 72.8%; in assay [4], 62.1%; in assay [5] it was 40.1%; in assay [6], 82.9%. Further, the inhibition at 100 µM in [7] was 31.3%; in [8], 57.4%; in assay [9], 23.3%.

As to `Nc1cnccc1NC(=O)c1ccc(CNC(=O)/C=C/c2ccccc2)cc1` [V-26], the results for the “Inhibition rate(%)” value with histone deacetylase (3.91 μM), in the assay on histone deacetylase (62.5 μM) and in the assay with histone deacetylase (2 mM) were 24.8%, 56.8% and 58.6%, respectively. For the same compound, the inhibition at 10 µM in assay [1] is 39.9%; in assay [2], 0.9%; in [3], 76.6%; in [4], 58.5%; in assay [5], 9.5%; in assay [6] it was 22.7%. Moreover, the inhibition at 10 µM in [7] turned out to be 13.8%; in assay [8] it was 45.2%; in [9] it was 7.7%. The inhibition at 100 µM in [1] was 82.3%; in [2] it was 23.9%; in assay [3], 95.7%; in assay [4] it was 87.5%; in assay [5], 79.1%; in [6], 81.4%. In addition, the inhibition at 100 µM worked out at 75.1% in assay [7], 72.2% in [8] and 56.3% in assay [9].

On to `Cc1ccc(/C=C/C(=O)NCc2ccc(C(=O)Nc3ccncc3N)cc2)cc1` [V-28], for which the “Inhibition rate(%)” value in the assay with histone deacetylase (3.91 μM) was determined as 30.4%; in the assay with histone deacetylase (62.5 μM) it was 56.8%; with histone deacetylase (2 mM), 66.0%. Moreover, the inhibition at 10 µM in assay [1] is 44.4%; in assay [2], -1.7%; in assay [3], 84.8%; in [4], 64.3%; in [5], 17.1%; in [6] it was 25.2%. For the same compound, the results for the inhibition at 10 µM in assay [7], in [8] and in [9] were 23.5%, 48.1% and 6.5%, respectively. The inhibition at 100 µM was 85.7% in assay [1]; 52% in assay [2]; 89.4% in assay [3]; 92.9% in [4]; 96.4% in [5]; 88.8% in assay [6]. Also, the inhibition at 100 µM in assay [7] came out at 60%; in assay [8] it was 75.5%; in [9], 58.8%.

With `COc1ccc(/C=C/C(=O)NCc2ccc(C(=O)Nc3ccncc3N)cc2)cc1` [V-30], the “Inhibition rate(%)” value is 28.2% with histone deacetylase (3.91 μM), 56.9% in the assay with histone deacetylase (62.5 μM) and 67.5% in the assay with histone deacetylase (2 mM). Moreover, the inhibition at 10 µM in assay [1] was found to be 42.3%; in [2] it was 12.3%; in assay [3], 83.1%; in assay [4], 60.9%; in assay [5], 21.8%; in assay [6], 18%. Also, the inhibition at 10 µM in assay [7] turned out to be 38.3%; in assay [8], 44.6%; in [9] it was 5.4%. In addition, the inhibition at 100 µM in [1] turned out to be 71.8%; in assay [2], 39.4%; in assay [3], 88.2%; in [4] it was 83.4%; in assay [5], 69.9%; in assay [6] it was 81.4%. Moreover, the inhibition at 100 µM in assay [7] was 69.2%; in assay [8], 69%; in assay [9] it was 40.8%.

Take `Nc1cnccc1NC(=O)c1ccc(CNC(=O)/C=C/c2ccc([N+](=O)[O-])cc2)cc1` [V-38]: the “Inhibition rate(%)” value in the assay with histone deacetylase (3.91 μM) came to 24.2%; with histone deacetylase (62.5 μM), 55.2%; with histone deacetylase (2 mM), 76.1%. For the same compound, the inhibition at 10 µM in [1] turned out to be 39.6%; in assay [2] it was 5.1%; in [3] it was 76.9%; in assay [4], 54%; in [5] it was 4.2%; in [6], 16.6%. For the same compound, the results for the inhibition at 10 µM in assay [7], in assay [8] and in assay [9] were 11.7%, 8.7% and -0.2%, respectively. Moreover, the inhibition at 100 µM in assay [1] came out at 86.9%; in assay [2], 40.8%; in assay [3], 95.1%; in [4], 88.2%; in assay [5], 63.7%; in assay [6] it was 73.6%. Moreover, the inhibition at 100 µM in assay [7] came out at 63.5%; in assay [8] it was 52.6%; in assay [9], 44.4%.

Consider `Nc1ncccc1NC(=O)c1ccc(CNC(=O)/C=C/c2cccnc2)cc1` [V-42, N-(2-amino-3-pyridyl)-4-[(3-pyridylacryloyl)aminomethyl]benzamide], for which the “Inhibition rate(%)” value was found to be 11.4% with histone deacetylase (3.91 μM), 40.2% in the assay on histone deacetylase (62.5 μM) and 82.4% with histone deacetylase (2 mM). The inhibition at 10 µM was 28.2% in [1]; 20.8% in [2]; 62.4% in assay [3]; 27.9% in assay [4]; 56.3% in [5]; 24.2% in [6]. Also, the inhibition at 10 µM in [7] was found to be 21.2%; in assay [8], 81.4%; in assay [9], 26.3%. In addition, the inhibition at 100 µM worked out at 55.8% in assay [1]; 50.6% in assay [2]; 93.7% in assay [3]; 67.7% in [4]; 88.8% in [5]; 89.2% in [6]. Moreover, the figures for the inhibition at 100 µM in [7], in assay [8] and in assay [9] were 58.8%, 89.4% and 77%, respectively.
